Legend:
[1] = biological target: AChE (Homo sapiens, UniProt P22303); assay: biochemical; settings: for inhibition at 1000 µM: 10^–3 M; for inhibition at 100 µM: 10^–4 M; for inhibition at 10 µM: 10^–5 M; for inhibition at 1 µM: 10^–6 M; for inhibition at 0.1 µM: 10^–7 M; for inhibition at 0.01 µM: 10^–8 M; for inhibition at 0.001 µM: 10^–9 M
Description: (§1) According to the modified Ellman approach outlined in our team’s earlier work, the AChE and BChE inhibitory activities of the obtained compounds were evaluated.[18]−[21]

[2] = biological target: BChE (Homo sapiens, UniProt P06276); assay: biochemical; settings: for inhibition at 1000 µM: 10^–3 M; for inhibition at 100 µM: 10^–4 M; for inhibition at 10 µM: 10^–5 M; for inhibition at 1 µM: 10^–6 M; for inhibition at 0.1 µM: 10^–7 M; for inhibition at 0.01 µM: 10^–8 M; for inhibition at 0.001 µM: 10^–9 M
Chain of BChE (P06276 29-602): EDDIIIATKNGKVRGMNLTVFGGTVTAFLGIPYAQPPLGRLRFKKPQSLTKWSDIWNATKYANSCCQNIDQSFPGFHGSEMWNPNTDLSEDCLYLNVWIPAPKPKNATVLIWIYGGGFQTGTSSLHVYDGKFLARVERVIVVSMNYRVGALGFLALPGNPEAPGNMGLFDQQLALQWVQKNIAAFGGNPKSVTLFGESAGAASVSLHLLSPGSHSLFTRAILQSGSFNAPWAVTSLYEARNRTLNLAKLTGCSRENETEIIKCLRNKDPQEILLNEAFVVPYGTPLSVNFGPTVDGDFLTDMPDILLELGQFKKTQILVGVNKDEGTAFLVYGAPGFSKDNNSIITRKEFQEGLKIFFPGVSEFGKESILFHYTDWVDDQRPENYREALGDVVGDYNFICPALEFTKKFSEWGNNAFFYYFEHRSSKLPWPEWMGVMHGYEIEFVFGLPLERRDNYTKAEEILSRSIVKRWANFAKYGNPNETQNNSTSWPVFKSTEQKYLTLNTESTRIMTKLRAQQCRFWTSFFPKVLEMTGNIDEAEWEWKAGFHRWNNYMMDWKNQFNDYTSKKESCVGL
Description: as §1

[3] = biological target: T1, MAO-A (Homo sapiens, UniProt P21397); assay: In vitro MAO-A inhibition assay (fluorometric); type: biochemical; settings: for inhibition at 1000 µM: 10^–3 M; for inhibition at 100 µM: 10^–4 M
T1 sequence (P21397 1-527): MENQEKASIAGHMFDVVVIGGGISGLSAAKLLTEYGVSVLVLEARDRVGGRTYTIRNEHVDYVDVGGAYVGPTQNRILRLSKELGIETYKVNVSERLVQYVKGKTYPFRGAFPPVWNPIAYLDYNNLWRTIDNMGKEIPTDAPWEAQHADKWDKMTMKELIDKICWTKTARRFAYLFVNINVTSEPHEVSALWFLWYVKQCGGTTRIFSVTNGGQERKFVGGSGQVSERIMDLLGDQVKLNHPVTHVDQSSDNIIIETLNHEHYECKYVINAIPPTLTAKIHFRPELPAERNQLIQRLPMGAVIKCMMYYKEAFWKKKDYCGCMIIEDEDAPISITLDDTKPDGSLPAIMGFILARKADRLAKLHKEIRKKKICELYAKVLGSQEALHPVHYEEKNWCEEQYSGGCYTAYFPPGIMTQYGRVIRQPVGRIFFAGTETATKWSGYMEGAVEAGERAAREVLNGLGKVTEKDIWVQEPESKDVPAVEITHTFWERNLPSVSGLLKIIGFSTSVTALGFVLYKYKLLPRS

[4] = biological target: T2, MAO-B (Homo sapiens, UniProt P27338); assay: In vitro MAO-B inhibition assay (fluorometric); type: biochemical; settings: for inhibition at 1000 µM: 10^–3 M; for inhibition at 100 µM: 10^–4 M; for inhibition at 10 µM: 10^–5 M; for inhibition at 1 µM: 10^–6 M; for inhibition at 0.1 µM: 10^–7 M; for inhibition at 0.01 µM: 10^–8 M; for inhibition at 0.001 µM: 10^–9 M
T2 sequence (P27338 1-520): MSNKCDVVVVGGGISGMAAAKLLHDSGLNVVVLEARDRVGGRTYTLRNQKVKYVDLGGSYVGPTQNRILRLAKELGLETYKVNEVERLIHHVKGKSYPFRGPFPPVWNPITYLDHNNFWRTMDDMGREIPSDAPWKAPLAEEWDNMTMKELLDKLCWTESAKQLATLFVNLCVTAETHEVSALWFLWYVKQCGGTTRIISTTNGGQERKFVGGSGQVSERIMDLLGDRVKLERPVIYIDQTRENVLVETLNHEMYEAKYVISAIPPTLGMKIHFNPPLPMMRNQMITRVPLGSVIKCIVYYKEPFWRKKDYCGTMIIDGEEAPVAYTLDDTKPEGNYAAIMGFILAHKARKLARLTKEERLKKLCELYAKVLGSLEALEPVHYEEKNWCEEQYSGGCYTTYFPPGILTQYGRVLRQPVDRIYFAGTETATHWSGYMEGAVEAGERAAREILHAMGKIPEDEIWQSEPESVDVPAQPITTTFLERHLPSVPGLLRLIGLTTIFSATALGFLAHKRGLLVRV

[5] = DPPH free-radical scavenging activity assay; settings: serial dilution 10^–3–10^–9 M; read-out: IC50 on DPPH antioxidant activity
Description: This approach is based on evaluating the free-radical scavenging abilities of the stable 1,1-diphenyl-2-picrylhydrazyl (DPPH) radical. To create the DPHH solution, 9.86 mg of DPPH was weighed and diluted to 25 mL with methanol. The test wells were then filled with 100 μL of the DPPH solution and 100 μL of the test solutions. Only 200 μL of methanol was used for the blank reading, while the control reading required the usage of 100 μL each of methanol and the DPPH solution. Following incubation, a spectrophotometric measurement at 517 nm was carried out.[26],[27]

[6] = biological target: T3, Beta Amyloid 1–42 (Aβ42) (Homo sapiens, UniProt P05067); assay: Beta Amyloid 1–42 (Aβ42) inhibitor screening assay; type: biochemical; settings: for inhibition at 100 µM: 10^–4 M
T3 construct: The Beta Amyloid 1–42 (Aβ42) Ligand Screening Assay kit; purchased BioVision, Milpitas, CA
T3 sequence (P05067 672-713 limits assumed): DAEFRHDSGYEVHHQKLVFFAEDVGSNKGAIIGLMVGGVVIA
Description: The Beta Amyloid 1–42 (Aβ42) Ligand Screening Assay kit (BioVision, Milpitas, CA) technique based on the fluorometric approach served as the basis for the experimental process.[21],[28],[29]

[7] = Cytotoxicity test (MTT); type: cell-based; settings: NIH/3T3 mouse embryonic fibroblast cells (ATCC CRL-1658), NIH/3T3 mouse fibroblast healthy cell line
Description: The NIH/3T3 cells were incubated according to the manufacturer’s recommendations. In 96-well plates, NIH/3T3 cells were seeded at a density of 1 × 10^4 cells per well. The MTT test was conducted in line with the previously mentioned standards.[19],[22],[23],[28],[30]

[8] = read-out: % β-amyloid plaque inhibition

Chain of AChE (P22303 32-614): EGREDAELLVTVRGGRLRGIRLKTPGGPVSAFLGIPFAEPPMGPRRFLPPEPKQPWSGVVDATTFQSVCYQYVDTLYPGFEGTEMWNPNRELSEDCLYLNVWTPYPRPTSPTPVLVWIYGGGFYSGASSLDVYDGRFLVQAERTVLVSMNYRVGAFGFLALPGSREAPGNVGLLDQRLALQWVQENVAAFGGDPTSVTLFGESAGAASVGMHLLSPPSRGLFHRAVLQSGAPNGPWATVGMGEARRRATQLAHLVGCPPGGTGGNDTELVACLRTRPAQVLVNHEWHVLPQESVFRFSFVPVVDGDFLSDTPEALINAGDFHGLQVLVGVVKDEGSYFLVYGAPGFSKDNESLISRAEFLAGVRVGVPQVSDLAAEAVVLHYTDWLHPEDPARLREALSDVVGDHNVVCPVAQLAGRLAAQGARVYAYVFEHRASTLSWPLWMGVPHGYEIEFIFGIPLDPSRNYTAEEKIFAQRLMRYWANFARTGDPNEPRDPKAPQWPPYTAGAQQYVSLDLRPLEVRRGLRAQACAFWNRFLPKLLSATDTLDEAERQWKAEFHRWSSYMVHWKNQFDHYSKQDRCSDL

Compound | IC50 [1] [nM] | inhibition at 1000 µM [1] [%] | inhibition at 100 µM [1] [%] | inhibition at 10 µM [1] [%] | inhibition at 1 µM [1] [%] | inhibition at 0.1 µM [1] [%] | inhibition at 0.01 µM [1] [%] | inhibition at 0.001 µM [1] [%] | inhibition at 1000 µM [2] [%] | inhibition at 100 µM [2] [%] | inhibition at 1000 µM [3] [%] | inhibition at 100 µM [3] [%] | IC50 [4] [nM] | inhibition at 1000 µM [4] [%] | inhibition at 100 µM [4] [%] | inhibition at 10 µM [4] [%] | inhibition at 1 µM [4] [%] | inhibition at 0.1 µM [4] [%] | IC50 [5] [nM] | IC50 [7] [nM] | further results
CCCN(C)CC(=O)Nc1ccc(/C=C2\Cc3cc(OC)c(OC)cc3C2=O)cc1 [D30] | 25.7 ± 0.9 | 98.2 ± 1.37 | 96.6 ± 1.28 | 91.8 ± 1.21 | 88.3 ± 1.1 | 74.3 ± 1.05 | 36.6 ± 0.627 | 16.4 ± 0.421 | 99.6 ± 2.02 | 46.43 ± 0.408 | 74.1 ± 2.09 | 28.3 ± 1.08 | 45.6 ± 1.7 | 97.5 ± 1.39 | 90.2 ± 1.47 | 82.5 ± 1.38 | 74.6 ± 1.29 | 66 ± 0.966 | 246 ± 11 | 601 ± 14.5 | inhibition at 0.01 µM [4]: 38.1 ± 0.458%; inhibition at 0.001 µM [4]: 19.8 ± 0.632%; inhibition at 1000 µM ([6]; 10^–3 M, read-out: % β-amyloid plaque inhibition): 89.6 ± 1.86%; inhibition at 100 µM [6, 8]: 81.5 ± 1.96%; IC50 ([6]; read-out: IC50 on β-amyloid plaque aggregation): 178 ± 7.4 nM
COc1ccc2c(c1)C(=O)/C(=C/c1ccc(NC(=O)CN(C)CCCN(C)C)cc1)C2 [D38] | 47.3 ± 1.6 | 93.2 ± 1.72 | 90.5 ± 1.3 | 81.6 ± 1.17 | 74 ± 0.956 | 68.2 ± 0.862 | 37.2 ± 0.562 | 19.7 ± 0.711 | 93.3 ± 1.37 | 90.6 ± 1.3 | 95 ± 2.39 | 24.1 ± 0.853 | 35.9 ± 1.3 | 94.8 ± 1.43 | 88.6 ± 1.38 | 84.6 ± 1.58 | 78.2 ± 1.41 | 62.5 ± 0.925 | 190 ± 7.8 | 6810 ± 118 | IC50 [2]: 78.2 ± 2.9 nM; inhibition at 10 µM [2]: 85.4 ± 1.3%; inhibition at 1 µM [2]: 78.6 ± 1.11%; inhibition at 0.1 µM [2]: 58.7 ± 0.952%; inhibition at 0.01 µM [2]: 28.8 ± 0.714%; inhibition at 0.001 µM [2]: 18.4 ± 0.633%; inhibition at 0.01 µM [4]: 42.3 ± 0.623%; inhibition at 0.001 µM [4]: 20.7 ± 0.318%; inhibition at 100 µM [6, 8]: > 50%
COc1cc2c(cc1OC)C(=O)/C(=C/c1ccc(NC(=O)CN3CCN(CCCN(C)C)CC3)cc1)C2 [D27] | 130 ± 4.2 | 91.2 ± 1.3 | 87.3 ± 1.12 | 82.1 ± 1.03 | 73.3 ± 0.994 | 41.2 ± 0.562 | 31.6 ± 0.389 | 22.5 ± 0.419 | 94.83 ± 0.731 | 35.9 ± 0.444 | 95.08 ± 0.687 | 44.4 ± 2.29 | – | 94.6 ± 1.02 | 43.1 ± 0.452 | – | – | – | 310 ± 13 | 10500 ± 467 | –
COc1ccc2c(c1)C(=O)/C(=C/c1ccc(NC(=O)CN(C)CCN(C)C)cc1)C2 [D35] | 215 ± 8.8 | 95.7 ± 1.2 | 91.7 ± 1.47 | 73.2 ± 1.12 | 61.8 ± 1.08 | 42.9 ± 0.628 | 33.6 ± 0.52 | 21.5 ± 0.448 | 90.2 ± 1.39 | – | 88.46 ± 0.758 | 21.7 ± 0.623 | – | 90.7 ± 1.25 | 42.5 ± 0.547 | – | – | – | 238 ± 11 | 53900 ± 1220 | IC50 [2]: 151 ± 4.8 nM; inhibition at 10 µM [2]: 74.6 ± 1.13%; inhibition at 1 µM [2]: 65.9 ± 1.01%; inhibition at 0.1 µM [2]: 54.9 ± 0.974%; inhibition at 0.01 µM [2]: 33.4 ± 0.814%; inhibition at 0.001 µM [2]: 18 ± 0.411%
